Key:
DLD1 cells = details: FACS, vs DMSO
Protocol: (§3) Cell were plated with different concentrations of compounds in a 96-well format and incubated in standard conditions for 6h and imaged. Active (cleaved) Caspase-3^+ apoptosis was determined using the BD Pharmigen kit and FACS (fluorescence-activated cell sorting).

Epigenetic regulators = test: RT-qPCR of epigenetic regulators in U251 cells; assay type: cell-based, human; details: 0.5 µM
Protocol: (§1) RT-qPCR was performed as in Melotti et al. (2014, supra) using BioRad equipment and reagents. Cells cultured in nitro were treated with the desired concentration of drug in DMEM-F12 and reduced serum (2.5% FBS) for 16h, unless otherwise noted, and collected in Trizol (Sigma) before total RNA extraction and cDNA synthesis. Primers were as in Table 1. HPRT (gene encoding Hypoxanthine phosphoribosyltransferase 1) and βACTIN were used as housekeeping controls for normalization.
The WNT-TCF-independent repressive activity of CAP2 on epigenetic regulators may be extrapolated to other cancer cells as it was also detected in HT29 and CC14 human colon cancer cells, in MeWo human melanoma cells as well as in U87 and U251 human glioma cells. In all these different human cancer cells, CAP2 (at 0.5 µM) modulated the expression of ZMYND8, SMARCAL1, TBLIXR1, SETD6 and TAF5Ls (Table 15).

WNT-TCF targets [1] = test: RT-qPCR gene expression in DLD1 cells; assay type: cell-based, human
Protocol: as §1
(§2) Primary colon cells CC14, CC36 and mCC11, colon cancer cell lines DLD1, HT29, Ls174T, melanoma cell line MeWo, glioblastoma cell lines U87 and U251, and the lung cancer cell line H358 were cultured in DMEM-F12 with 10% FBS under standard in nitro conditions.

WNT-TCF targets [2] = test: RT-qPCR gene expression in CC14 primary colon cancer cells; assay type: cell-based, human; parameters: cMYC expression: scale not given here
Protocol: as §1
Primary colon cells CC14 were cultured in DMEM-F12 with 10% FBS under standard in vitro conditions.
as §2

WNT-TCF targets [3] = test: RT-qPCR gene expression in HT29 cells; assay type: cell-based, human; details: 16h, batch 3, vs DMSO=1
Protocol: as §1, §2

cell proliferation = test: BrdU incorporation assay; assay type: cell-based; details: Example 3 (Ls174T, DLD1 cells)
Protocol: Cells incubated in vitro with different compounds were treated in DMEM-F12 with reduced serum (2.5% FBS) for 20 min with BrdU (5-bromo-2'-deoxyuridine; 10mg/ml, Sigma), washed and fixed with fresh paraformaldehyde (PFA; 4%, pH 8) followed by acid treatment and neutralization (Melotti et al., 2014, supra). Antibody analyses used anti-BrdU antibodies (supplied by University of Iowa Hybridoma Bank) and rhodamine-coupled anti-mouse secondary antibodies (Invitrogen Molecular Probes). Nuclei were counterstained with DAPI (4',6-diamidino-2-phenylindole; Sigma).

WNT-TCF targets [4] = test: RT-qPCR gene expression in CC36 primary colon cancer cells; assay type: cell-based, human; details: 16h, batch 3, vs DMSO=1
Protocol: as §1, §2

Ls174T cells [5] = details: FACS, vs DMSO
Protocol: as §3

Ls174T cells [6] = test: Clonal spheroid assay, Ls174T; assay type: cell-based, human; details: Homo sapiens, LS174T, 16 h, read-out: IC50, number of stem cell-derived spheroids
Protocol: Cells were treated with different concentrations of compounds for 16h in 2D adherent culture, washed, harvested and plated in suspension with serum-free DMEM-F12 media with B27 supplement (1:50 dilution) at 1 cell/well in 96-well format in triplicates. Plated cells were monitored to ensure the presence of single cells in each well and spheroids counted and photographed after 10 days for each round.
To directly test for a long-lasting repression of WNT-TCF targets by CAP2 clonogenic properties of cancer stem cells were tested. DLD1 and LS174T cells were first treated with CAP2 in 2D culture in vitro followed by removal of the drug, washing with PBS, and plating under non-adherent 3D conditions for clonal spheroid growth in the absence of the drug. After primary spheroid growth, the spheroids were dissociated and replated as single cells for secondary and subsequent clonogenic spheroid formation, also in the absence of the compound of the invention. As negative control DMSO-treatment was used.

[7] = DLD1, 1.25µM, 16h, batch 3, vs DMSO=1
[8] = DLD1, 2.5µM, 16h, batch 3, vs DMSO=1
[9] = DLD1, 5µM, 16h, batch 3, vs DMSO=1
[10] = DLD1, 10µM, 16h, batch 3, vs DMSO=1
[11] = Table 7, DLD1, 1.25µM, vs DMSO=1
[12] = Table 7, DLD1, 2.5µM, vs DMSO=1
[13] = Table 11, head 'in vitro', DLD1, concentration not given
[14] = Table 13, DLD1 secondary 3D spheroids, pretreated 2.5µM
[15] = CC14, 1.25µM, 16h, batch 3, vs DMSO=1
[16] = CC14, 2.5µM, 16h, batch 3, vs DMSO=1
[17] = CC14, 5µM, 16h, batch 3, vs DMSO=1
[18] = CC14, 10µM, 16h, batch 3, vs DMSO=1

CC1=C(C)C(=O)O[C@@H]([C@](C)(O)[C@]2(O)CC[C@@]3(O)[C@@H]4CC=C5CC=CC(=O)[C@]5(C)[C@H]4CC[C@]23C)C1 [CAP2]
concentration from which activated Caspase3 labeled cells increase (DLD1 cells): 2.5 µM | EED expression (Epigenetic regulators): 0.8 | SETD6 expression (Epigenetic regulators): 0.9 | SMARCAL1 expression (Epigenetic regulators): 0.5 | TAF5L expression (Epigenetic regulators): 1.1 | TBL1XR1 expression (Epigenetic regulators): 0.6 | ZMYND8 expression (Epigenetic regulators): 0.4 | AXIN2 expression (WNT-TCF targets [1]; [7]): 1.2 | LGR5 expression (WNT-TCF targets [1]; [7]): 1.6 | AXIN2 expression (WNT-TCF targets [1]; [8]): 0.2 | LGR5 expression (WNT-TCF targets [1]; [8]): 0.3 | AXIN2 expression (WNT-TCF targets [1]; [9]): 0.3 | LGR5 expression (WNT-TCF targets [1]; [9]): 0.1 | AXIN2 expression (WNT-TCF targets [1]; [10]): 0.1 | LGR5 expression (WNT-TCF targets [1]; [10]): 0.04 | AXIN2 expression level as compared to control (WNT-TCF targets [1]; DLD1, 2D culture, 2.5µm): 0.2 | ASCL2 expression (WNT-TCF targets [1]; [11]): 0.2 | AXIN2 expression (WNT-TCF targets [1]; [11]): 0.8 | CDKN1A expression (WNT-TCF targets [1]; [11]): 7.2 | LEF1 expression (WNT-TCF targets [1]; [11]): 0.4 | LGR5 expression (WNT-TCF targets [1]; [11]): 0.5 | cMYC expression (WNT-TCF targets [1]; [11]): 0.5 | ASCL2 expression (WNT-TCF targets [1]; [12]): 0.2 | AXIN2 expression (WNT-TCF targets [1]; [12]): 0.6 | CDKN1A expression (WNT-TCF targets [1]; [12]): 8.6 | LEF1 expression (WNT-TCF targets [1]; [12]): 0.3 | LGR5 expression (WNT-TCF targets [1]; [12]): 0.3 | cMYC expression (WNT-TCF targets [1]; [12]): 0.2 | ASCL2 expression (WNT-TCF targets [1]; Table 7, DLD1, 5µM, vs DMSO=1): 0.3 | AXIN2 expression (WNT-TCF targets [1]; Table 7, DLD1, 5µM, vs DMSO=1): 0.5 | CDKN1A expression (WNT-TCF targets [1]; Table 7, DLD1, 5µM, vs DMSO=1): 9.0 | LEF1 expression (WNT-TCF targets [1]; Table 7, DLD1, 5µM, vs DMSO=1): 0.1 | LGR5 expression (WNT-TCF targets [1]; Table 7, DLD1, 5µM, vs DMSO=1): 0.1 | cMYC expression (WNT-TCF targets [1]; Table 7, DLD1, 5µM, vs DMSO=1): 0.001 | ASCL2 expression (WNT-TCF targets [1]; Table 7, DLD1, 10µM, vs DMSO=1): 0.3 | AXIN2 expression (WNT-TCF targets [1]; Table 7, DLD1, 10µM, vs DMSO=1): 0.2 | CDKN1A expression (WNT-TCF targets [1]; Table 7, DLD1, 10µM, vs DMSO=1): 6.1 | LEF1 expression (WNT-TCF targets [1]; Table 7, DLD1, 10µM, vs DMSO=1): 0.1 | LGR5 expression (WNT-TCF targets [1]; Table 7, DLD1, 10µM, vs DMSO=1): 0.1 | cMYC expression (WNT-TCF targets [1]; Table 7, DLD1, 10µM, vs DMSO=1): 0.0002 | ASCL2 expression (WNT-TCF targets [1]; [13]): 0.3 | AXIN2 expression (WNT-TCF targets [1]; [13]): 0.5 | LGR5 expression (WNT-TCF targets [1]; [13]): 0.1 | AXIN2 expression (WNT-TCF targets [1]; Table 13, DLD1 2D, 2.5µM): 0.2 | cMYC expression (WNT-TCF targets [1]; Table 13, DLD1 2D, 2.5µM): 0.1 | AXIN2 expression (WNT-TCF targets [1]; [14]): 0.5 | cMYC expression (WNT-TCF targets [1]; [14]): 0.4 | AXIN2 expression (WNT-TCF targets [2]; 100 nM, Example 2 cells (CC14)): 0.7 | LGR5 expression (WNT-TCF targets [2]; 100 nM, Example 2 cells (CC14)): 0.3 | cMYC expression (WNT-TCF targets [2]; 100 nM, Example 2 cells (CC14)): 0.2 | AXIN2 expression (WNT-TCF targets [2]; [15]): 0.9 | LGR5 expression (WNT-TCF targets [2]; [15]): 1.0 | AXIN2 expression (WNT-TCF targets [2]; [16]): 1.5 | LGR5 expression (WNT-TCF targets [2]; [16]): 0.8 | AXIN2 expression (WNT-TCF targets [2]; [17]): 0.7 | LGR5 expression (WNT-TCF targets [2]; [17]): 0.1 | AXIN2 expression (WNT-TCF targets [2]; [18]): 0.7 | LGR5 expression (WNT-TCF targets [2]; [18]): 0.03 | AXIN2 expression (WNT-TCF targets [3]; 1.25µM): 0.8 | LGR5 expression (WNT-TCF targets [3]; 1.25µM): 0.8 | AXIN2 expression (WNT-TCF targets [3]; 2.5µM): 0.9 | LGR5 expression (WNT-TCF targets [3]; 2.5µM): 0.7 | AXIN2 expression (WNT-TCF targets [3]; 5µM): 0.8 | LGR5 expression (WNT-TCF targets [3]; 5µM): 0.3 | AXIN2 expression (WNT-TCF targets [3]; 10µM): 0.4 | LGR5 expression (WNT-TCF targets [3]; 10µM): 0.1 | concentration which changes cell proliferation assessed by BrdU incorporation (cell proliferation): 1.25 µM | AXIN2 expression (WNT-TCF targets [4]; 1.25µM): 1.2 | AXIN2 expression (WNT-TCF targets [4]; 2.5µM): 0.6 | AXIN2 expression (WNT-TCF targets [4]; 5µM): 0.4 | AXIN2 expression (WNT-TCF targets [4]; 10µM): 0.4 | concentration from which activated Caspase3 labeled cells increase (Ls174T cells [5]): 2.5 µM | IC50 (Ls174T cells [6]): < 1250 nM

— EP3248604A1, “AGENTS FOR MODULATION OF WNT-TCF SIGNALLING AND USES THEREOF” (UNIVERSITE DE GENEVE, priority 2016, dated 2017)
